# Test results taken from ChEMBL document CHEMBL5465560, “Selectivity Literature for EUbOPEN Chemogenomic Library” (2024).
# pIC50: −log10 of the molar value.
# What was measured:
# [1] = target: Cyclin-dependent kinase inhibitor 2A (Homo sapiens, UniProt P42771); test: Selectivity interaction (Kinase panel (33PanQinase(R) Activity Assay)) EUB0000877a CDKN2A
# [2] = target: T1, Serine/threonine-protein kinase TNNI3K (Homo sapiens) (UniProt Q59H18); test: Selectivity interaction (KinomeScan (DiscoverX)) EUB0000607a TNNI3K; conditions: at 10 µM
# T1 sequence (whole entry): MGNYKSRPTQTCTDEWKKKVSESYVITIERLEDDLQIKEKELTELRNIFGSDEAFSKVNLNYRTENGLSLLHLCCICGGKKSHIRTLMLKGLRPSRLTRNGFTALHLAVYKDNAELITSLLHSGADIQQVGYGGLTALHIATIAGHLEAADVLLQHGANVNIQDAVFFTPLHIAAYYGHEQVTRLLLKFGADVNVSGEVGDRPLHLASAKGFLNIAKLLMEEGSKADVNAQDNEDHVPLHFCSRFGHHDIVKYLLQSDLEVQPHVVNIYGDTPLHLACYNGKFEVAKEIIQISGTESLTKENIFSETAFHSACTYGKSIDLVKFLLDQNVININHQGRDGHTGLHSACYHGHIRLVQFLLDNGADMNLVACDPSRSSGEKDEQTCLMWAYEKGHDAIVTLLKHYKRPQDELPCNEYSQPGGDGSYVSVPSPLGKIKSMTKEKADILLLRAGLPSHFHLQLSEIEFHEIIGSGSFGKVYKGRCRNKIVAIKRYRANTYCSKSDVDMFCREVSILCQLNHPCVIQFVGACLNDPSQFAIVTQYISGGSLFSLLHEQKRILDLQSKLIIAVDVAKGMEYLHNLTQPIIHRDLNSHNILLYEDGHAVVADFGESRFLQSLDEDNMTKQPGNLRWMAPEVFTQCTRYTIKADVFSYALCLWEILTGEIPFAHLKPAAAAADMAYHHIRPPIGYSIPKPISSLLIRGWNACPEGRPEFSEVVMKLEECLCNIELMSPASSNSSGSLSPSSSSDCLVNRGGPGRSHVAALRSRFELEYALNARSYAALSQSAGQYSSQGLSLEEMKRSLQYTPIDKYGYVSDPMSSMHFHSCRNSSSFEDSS
# [3] = target: T2, Serine/threonine-protein kinase MAK (Homo sapiens) (UniProt P20794); test: Selectivity interaction (KinomeScan (DiscoverX)) EUB0000695a MAK; conditions: at 100 nM
# T2 sequence (whole entry): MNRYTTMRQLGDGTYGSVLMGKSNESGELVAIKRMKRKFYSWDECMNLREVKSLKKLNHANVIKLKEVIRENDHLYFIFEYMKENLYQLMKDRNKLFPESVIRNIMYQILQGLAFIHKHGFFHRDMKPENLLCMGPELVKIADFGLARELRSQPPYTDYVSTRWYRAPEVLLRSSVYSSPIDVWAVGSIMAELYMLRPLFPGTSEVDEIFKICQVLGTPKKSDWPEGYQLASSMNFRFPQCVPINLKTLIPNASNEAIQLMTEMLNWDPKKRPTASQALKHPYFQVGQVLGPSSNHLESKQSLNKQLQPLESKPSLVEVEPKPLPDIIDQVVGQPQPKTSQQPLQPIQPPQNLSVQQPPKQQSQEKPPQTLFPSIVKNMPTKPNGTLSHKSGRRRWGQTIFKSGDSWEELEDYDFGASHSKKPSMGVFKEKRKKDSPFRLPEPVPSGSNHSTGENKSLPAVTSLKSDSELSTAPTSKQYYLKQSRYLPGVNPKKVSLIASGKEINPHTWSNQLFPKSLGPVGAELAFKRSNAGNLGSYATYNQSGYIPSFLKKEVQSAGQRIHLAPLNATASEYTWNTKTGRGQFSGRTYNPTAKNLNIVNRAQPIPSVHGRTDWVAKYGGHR
# [4] = target: Serine/threonine-protein kinase PAK 4 (Homo sapiens, UniProt O96013); test: Selectivity interaction (Kinase panel (DSF assay)) EUB0001559a PAK4
# Serine/threonine-protein kinase PAK 4, sequence (O96013 whole entry, looked up): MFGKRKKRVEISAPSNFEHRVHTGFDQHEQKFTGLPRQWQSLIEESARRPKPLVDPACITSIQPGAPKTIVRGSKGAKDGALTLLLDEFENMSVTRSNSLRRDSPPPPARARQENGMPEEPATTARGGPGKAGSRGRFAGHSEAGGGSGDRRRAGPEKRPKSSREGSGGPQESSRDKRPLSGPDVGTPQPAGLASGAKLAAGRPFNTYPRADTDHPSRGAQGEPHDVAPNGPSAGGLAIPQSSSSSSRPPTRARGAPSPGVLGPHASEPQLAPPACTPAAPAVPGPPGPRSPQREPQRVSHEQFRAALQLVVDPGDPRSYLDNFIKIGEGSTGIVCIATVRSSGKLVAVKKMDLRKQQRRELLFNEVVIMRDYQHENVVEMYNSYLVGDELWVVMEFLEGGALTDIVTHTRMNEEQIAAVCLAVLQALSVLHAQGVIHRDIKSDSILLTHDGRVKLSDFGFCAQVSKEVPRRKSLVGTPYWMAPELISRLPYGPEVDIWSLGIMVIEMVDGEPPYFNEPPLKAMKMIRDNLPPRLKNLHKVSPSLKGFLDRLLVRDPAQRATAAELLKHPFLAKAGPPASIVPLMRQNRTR
# [5] = target: Serine/threonine-protein kinase PAK 6 (Homo sapiens) (UniProt Q9NQU5); test: Selectivity interaction (KinomeScan (DiscoverX)) EUB0001049a PAK6; conditions: at 1 µM
# Serine/threonine-protein kinase PAK 6 (Homo sapiens), sequence (Q9NQU5 whole entry, looked up): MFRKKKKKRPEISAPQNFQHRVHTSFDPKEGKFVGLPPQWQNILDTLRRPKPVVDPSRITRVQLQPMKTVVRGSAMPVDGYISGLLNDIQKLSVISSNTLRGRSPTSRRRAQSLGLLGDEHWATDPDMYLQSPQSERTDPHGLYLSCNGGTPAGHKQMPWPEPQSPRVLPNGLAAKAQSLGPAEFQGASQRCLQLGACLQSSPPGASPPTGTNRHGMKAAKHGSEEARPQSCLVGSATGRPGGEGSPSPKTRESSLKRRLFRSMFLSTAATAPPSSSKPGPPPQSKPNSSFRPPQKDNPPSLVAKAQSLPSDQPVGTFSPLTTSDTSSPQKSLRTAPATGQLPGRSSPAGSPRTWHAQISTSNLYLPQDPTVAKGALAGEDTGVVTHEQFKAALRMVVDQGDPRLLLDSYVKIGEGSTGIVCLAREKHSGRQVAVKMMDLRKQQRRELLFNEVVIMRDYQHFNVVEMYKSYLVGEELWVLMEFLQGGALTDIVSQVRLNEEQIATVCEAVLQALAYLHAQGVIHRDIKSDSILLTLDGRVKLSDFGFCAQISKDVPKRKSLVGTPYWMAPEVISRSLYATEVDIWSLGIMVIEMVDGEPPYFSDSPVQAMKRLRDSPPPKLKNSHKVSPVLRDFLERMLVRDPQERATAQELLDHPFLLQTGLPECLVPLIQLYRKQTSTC
# [6] = target: T3, Testis-specific serine/threonine-protein kinase 2 (Homo sapiens) (UniProt Q96PF2); test: Selectivity interaction (Kinase screening (Nanosyn)) EUB0000604a TSSK2
# T3 sequence (whole entry): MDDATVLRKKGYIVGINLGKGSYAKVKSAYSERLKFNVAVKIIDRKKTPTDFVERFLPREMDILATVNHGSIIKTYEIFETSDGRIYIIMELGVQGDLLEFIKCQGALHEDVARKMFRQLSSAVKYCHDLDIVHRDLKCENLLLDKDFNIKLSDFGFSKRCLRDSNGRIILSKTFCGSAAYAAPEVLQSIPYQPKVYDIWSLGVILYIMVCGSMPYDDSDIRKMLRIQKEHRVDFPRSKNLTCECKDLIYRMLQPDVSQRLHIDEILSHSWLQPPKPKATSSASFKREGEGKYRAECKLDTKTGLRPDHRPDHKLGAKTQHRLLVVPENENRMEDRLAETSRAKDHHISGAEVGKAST
# [7] = target: T4, Dual specificity mitogen-activated protein kinase kinase 3 (Homo sapiens) (UniProt P46734); test: Selectivity interaction (Ambit KINOMEscan and KiNATiv profiling in Jurkat cells) EUB0000090b MAP2K3; format: cell-based; conditions: at 1 µM
# T4 sequence (whole entry): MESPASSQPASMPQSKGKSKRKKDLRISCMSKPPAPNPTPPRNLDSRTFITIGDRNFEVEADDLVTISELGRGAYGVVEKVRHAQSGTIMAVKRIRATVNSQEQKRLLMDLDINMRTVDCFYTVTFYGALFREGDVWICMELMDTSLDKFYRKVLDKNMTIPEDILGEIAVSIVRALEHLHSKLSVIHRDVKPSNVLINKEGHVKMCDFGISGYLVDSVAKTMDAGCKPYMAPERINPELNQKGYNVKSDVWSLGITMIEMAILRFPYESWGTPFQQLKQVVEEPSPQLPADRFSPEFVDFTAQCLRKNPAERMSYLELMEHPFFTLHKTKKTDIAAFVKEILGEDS
# [8] = target: Cyclin-dependent kinase 17 (Homo sapiens) (UniProt Q00537); test: Selectivity interaction (KinomeScan (DiscoverX)) EUB0000618a CDK17; conditions: at 10 µM
# Cyclin-dependent kinase 17 (Homo sapiens), sequence (Q00537 whole entry, looked up): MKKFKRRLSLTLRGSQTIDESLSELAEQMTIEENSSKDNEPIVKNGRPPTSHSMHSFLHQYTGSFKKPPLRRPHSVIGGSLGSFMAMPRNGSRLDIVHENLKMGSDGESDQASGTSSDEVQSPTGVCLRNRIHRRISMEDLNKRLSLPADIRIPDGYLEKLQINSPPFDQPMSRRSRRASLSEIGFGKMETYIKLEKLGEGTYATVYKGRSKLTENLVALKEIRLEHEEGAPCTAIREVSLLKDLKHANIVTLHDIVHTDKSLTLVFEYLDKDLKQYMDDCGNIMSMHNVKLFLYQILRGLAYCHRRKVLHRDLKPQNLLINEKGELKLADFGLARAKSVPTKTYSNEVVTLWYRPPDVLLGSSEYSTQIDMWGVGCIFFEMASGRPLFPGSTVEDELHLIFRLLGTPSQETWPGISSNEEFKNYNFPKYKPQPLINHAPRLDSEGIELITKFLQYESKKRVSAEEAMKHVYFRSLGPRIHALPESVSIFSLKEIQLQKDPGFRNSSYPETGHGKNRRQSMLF
# Cyclin-dependent kinase inhibitor 2A, sequence (P42771 whole entry): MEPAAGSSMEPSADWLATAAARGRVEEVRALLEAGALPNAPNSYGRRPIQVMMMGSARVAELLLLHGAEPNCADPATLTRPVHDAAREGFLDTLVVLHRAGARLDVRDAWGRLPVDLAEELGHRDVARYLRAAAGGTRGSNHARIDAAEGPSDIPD
smiles,measurement,setting,value
CCC(=O)N1CC[C@H](Nc2ncnc3c2CN(c2cnc(OC)c(C(F)(F)F)c2)CC3)C1 [LENIOLISIB],pIC50,[1],< 5.00
CNC(=O)Nc1ccc(-c2nc(N3CC4CCC(C3)O4)c3cnn(C4CCC5(CC4)OCCO5)c3n2)cc1,% of control,[2],59%
Cc1cc(F)c(C(=O)Nc2cccc(-c3nncn3C(C)C)n2)cc1-n1cnc(C2CC2)c1,% of control,[3],100%
CN(C(=O)c1cnn2cccnc12)c1cc2c(cc1N1CCOCC1)C(=O)N(C[C@@H](F)C(C)(C)O)C2,dTM,[4],0.4 K
COc1cc(Nc2nc(C)cc(-c3cnn4nc(OC)ccc34)n2)cc(C(F)(F)F)c1,% of control,[5],75%
Cc1cnc(Nc2ccc(F)cc2Cl)nc1-c1c[nH]c(C(=O)N[C@H](CO)c2cccc(Cl)c2)c1,% of inhibition,[6],3%
CN(C)C/C=C/C(=O)Nc1ccc(C(=O)N2CCCC(Nc3ncc(Cl)c(-c4c[nH]c5ccccc45)n3)C2)cc1 (stereo not drawn),% of control,[7],51%
O[C@H]1CC[C@H](Nc2ncc3nc(Nc4c(F)cc(F)cc4F)n([C@H]4CCOC4)c3n2)CC1,% of control,[8],100%
